Experimental data from ChEMBL document CHEMBL1201862, “PubChem BioAssay data set” (2004).
The source made the active and inactive calls.

What was measured:
[1] = loss of viability in HepG2 cells – cell-based, CellTiter-Glo, cherry-picked, cytotoxicity control for Shn3 inhibitor project, dose response (AID 624134); assay type: functional
[2] = non-specific 3'UTR reporter inhibition in Clone20-Shn3RL – cell-based, Renilla luciferase, cherry-picked, counter-screen for Shn3 inhibitor project, dose response (AID 624133); assay type: functional
HEK293 [3] = assay: NOD2 signaling inhibitors in MDP-stimulated cells, cell-based, uHTS, luminescence (AID 2001); assay type: functional; conditions: Homo sapiens
HEK293 [4] = assay: cells; assay type: functional, cell-based; conditions: Homo sapiens
[5] = MIN6 cell viability loss – mouse insulinoma, cytotoxicity control, dose response (AID 2122); assay type: functional;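 also: confirmatory high-throughput counterscreen run to flag cytotoxic compounds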
[6] = decrease of insulin promoter-GFP reporter – imaging, high-content screening, mouse beta cells (AID 1628); assay type: functional; conditions: MIN6
HEK293 [7] = assay: inhibition of NOD1-driven NF-kB reporter – cell-based, luminescence, uHTS, primary screen (AID 1578); assay type: functional; conditions: Homo sapiens
HEK293 [8] = assay: cells; assay type: functional, cell-based; conditions: Homo sapiens; remark: listed apart in the source
[9] = reduction of Shn3 3'UTR-driven luciferase in osteoblasts – cell-based, Clone20 osteoblasts, firefly luciferase, cherry-picked, dose response (AID 624132); assay type: functional;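 also: firefly luciferase luminescence from reporter carrying the Shn3 3'UTR in osteoblasts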
INS1 = assay: INS-1E survival protection against cytokine death – cell-based, luminescence, retest, dose response (AID 449756); assay type: functional; conditions: Rattus norvegicus;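 also: cell death triggered by IL-1 beta plus TNF-alpha plus IFN-gamma mixture; protective hits raise ATP signal compared with cytokine alone wells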
[10] = Shn3 3'UTR reporter signal decrease – cell-based, Clone20 osteoblasts, firefly luciferase, cherry-pick, set 2, Schnurri-3 inhibitor project, dose response (AID 720490); assay type: functional;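 also: actives lower the luminescence signal as inhibitors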
[11] = system: Streptococcus sp. 'group A'; assay: Streptococcus pyogenes SK(-)GAS viability under kanamycin – luminescence, BacTiterGlo, confirmation, counter-screen for streptokinase expression inhibitor project, dose response (AID 1900); assay type: functional, organism-based
Streptococcus = assay: GAS UMAA2166 growth inhibition – luminescence, BacTiterGlo, counter-screen for streptokinase expression inhibitor project, dose response (AID 1915); assay type: functional, organism-based;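 also: potency for reduction of bacterial viability or growth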
[12] = viability of PTEN-deleted HCT116 cells – cell-based, HCT116 PTEN knockout, dose response (AID 1047); assay type: functional;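 also: HCT116 colon tumor cells with PTEN knocked out; cells exposed to compound for 60 hours before readout; potency for loss of cell viability measured by luminescence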
[13] = microbe, parasite or virus in culture; assay type: functional; conditions: Mycobacterium tuberculosis
[14] = viability of HCT116 lacking mutant beta-catenin – cell-based, human colon tumor, dose response (AID 1045); assay type: functional;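 also: HCT116 colon tumor cells with beta catenin knocked out; cells exposed to compound for 60 hours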
[15] = molecular target: Disintegrin and metalloproteinase domain-containing protein 17 (Homo sapiens, UniProt P78536); assay: inhibition of ADAM17 substrate cleavage – biochemical, quenched FRET substrate, counter-screen for ADAM10 exosite inhibitor project, dose response (AID 743253)
Disintegrin and metalloproteinase domain-containing protein 17, sequence (P78536 whole entry, the tested form may be a part): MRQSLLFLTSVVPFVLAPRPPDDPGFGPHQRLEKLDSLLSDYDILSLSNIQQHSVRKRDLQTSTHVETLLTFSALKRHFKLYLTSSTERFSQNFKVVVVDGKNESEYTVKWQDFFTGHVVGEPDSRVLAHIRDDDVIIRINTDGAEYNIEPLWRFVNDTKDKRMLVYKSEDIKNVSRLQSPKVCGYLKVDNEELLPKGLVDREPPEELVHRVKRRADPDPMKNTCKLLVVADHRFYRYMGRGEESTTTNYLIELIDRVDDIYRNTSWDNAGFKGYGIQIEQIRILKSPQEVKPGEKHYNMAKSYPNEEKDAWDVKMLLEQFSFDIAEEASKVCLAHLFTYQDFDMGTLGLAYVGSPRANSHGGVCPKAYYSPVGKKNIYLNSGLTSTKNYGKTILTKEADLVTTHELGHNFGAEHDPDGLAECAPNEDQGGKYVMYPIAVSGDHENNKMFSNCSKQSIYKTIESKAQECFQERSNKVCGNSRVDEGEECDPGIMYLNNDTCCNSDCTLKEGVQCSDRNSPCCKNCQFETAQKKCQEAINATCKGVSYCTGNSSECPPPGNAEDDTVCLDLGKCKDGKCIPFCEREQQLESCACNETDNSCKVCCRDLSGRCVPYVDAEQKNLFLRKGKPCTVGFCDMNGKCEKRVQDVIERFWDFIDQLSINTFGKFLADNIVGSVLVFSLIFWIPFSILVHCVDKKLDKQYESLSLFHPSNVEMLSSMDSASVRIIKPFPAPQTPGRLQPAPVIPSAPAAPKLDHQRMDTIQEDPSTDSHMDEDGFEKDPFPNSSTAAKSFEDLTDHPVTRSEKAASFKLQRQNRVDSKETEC

Streptokinase A = molecular target: T1, Streptokinase A (Streptococcus pyogenes serotype M1, UniProt P10520); assay: viability-normalized secreted streptokinase activity reduction – plasminogen activation absorbance, OD405, dose response (AID 1914); assay type: functional, Streptococcus pyogenes M1 GAS;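 also: secreted streptokinase activity via plasminogen activation per viability signal from cell pellet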
T1 sequence (P10520 whole entry): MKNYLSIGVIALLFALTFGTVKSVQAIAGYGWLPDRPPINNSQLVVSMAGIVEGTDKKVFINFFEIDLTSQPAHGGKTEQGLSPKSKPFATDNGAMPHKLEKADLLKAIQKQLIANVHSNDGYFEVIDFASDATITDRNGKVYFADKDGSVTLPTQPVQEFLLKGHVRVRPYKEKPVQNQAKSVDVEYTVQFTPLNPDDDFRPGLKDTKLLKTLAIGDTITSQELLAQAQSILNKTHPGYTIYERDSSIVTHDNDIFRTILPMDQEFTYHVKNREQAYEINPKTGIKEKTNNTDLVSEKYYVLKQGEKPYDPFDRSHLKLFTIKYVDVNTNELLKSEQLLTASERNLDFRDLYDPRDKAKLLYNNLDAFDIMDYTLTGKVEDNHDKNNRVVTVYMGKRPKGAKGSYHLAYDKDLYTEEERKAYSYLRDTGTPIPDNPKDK

[16] = ATP-based viability loss in HEK293T cells – cell-based, CellTiter-Glo luminescence, dry powder, set 2, cytotoxicity control, dose response (AID 720595); assay type: functional; conditions: HEK293
[17] = molecular target: T2, Oxysterols receptor LXR-beta (Homo sapiens, UniProt P55055); assay: LXR agonists, Gal4 luciferase reporter, dose response, counter-screen for ssDAF-12 agonist project, cell-based, luminescence, HEK293, S. stercoralis campaign (AID 720737); assay type: functional; conditions: read-out: IC50 (the source's name)
T2 sequence (P55055 whole entry): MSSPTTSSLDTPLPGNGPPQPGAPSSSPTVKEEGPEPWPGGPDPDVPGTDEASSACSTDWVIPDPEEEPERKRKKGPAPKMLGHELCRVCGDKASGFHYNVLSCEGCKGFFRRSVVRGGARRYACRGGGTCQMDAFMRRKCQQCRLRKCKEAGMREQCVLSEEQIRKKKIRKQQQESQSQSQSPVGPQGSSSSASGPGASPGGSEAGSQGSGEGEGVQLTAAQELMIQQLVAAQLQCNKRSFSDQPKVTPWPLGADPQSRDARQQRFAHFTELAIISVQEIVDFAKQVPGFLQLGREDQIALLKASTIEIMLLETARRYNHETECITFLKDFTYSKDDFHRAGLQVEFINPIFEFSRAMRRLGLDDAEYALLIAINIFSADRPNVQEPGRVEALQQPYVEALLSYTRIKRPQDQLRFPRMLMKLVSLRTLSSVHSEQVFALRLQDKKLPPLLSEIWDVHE

[18] = molecular target: Glucose-6-phosphate 1-dehydrogenase (Homo sapiens, UniProt P11413); assay: inhibition of Homo sapiens G6PD, dose series – biochemical, fluorescence, selectivity assay for P. falciparum G6PD inhibitor project, dose response (AID 504792); assay type: functional
Glucose-6-phosphate 1-dehydrogenase, sequence (P11413 whole entry): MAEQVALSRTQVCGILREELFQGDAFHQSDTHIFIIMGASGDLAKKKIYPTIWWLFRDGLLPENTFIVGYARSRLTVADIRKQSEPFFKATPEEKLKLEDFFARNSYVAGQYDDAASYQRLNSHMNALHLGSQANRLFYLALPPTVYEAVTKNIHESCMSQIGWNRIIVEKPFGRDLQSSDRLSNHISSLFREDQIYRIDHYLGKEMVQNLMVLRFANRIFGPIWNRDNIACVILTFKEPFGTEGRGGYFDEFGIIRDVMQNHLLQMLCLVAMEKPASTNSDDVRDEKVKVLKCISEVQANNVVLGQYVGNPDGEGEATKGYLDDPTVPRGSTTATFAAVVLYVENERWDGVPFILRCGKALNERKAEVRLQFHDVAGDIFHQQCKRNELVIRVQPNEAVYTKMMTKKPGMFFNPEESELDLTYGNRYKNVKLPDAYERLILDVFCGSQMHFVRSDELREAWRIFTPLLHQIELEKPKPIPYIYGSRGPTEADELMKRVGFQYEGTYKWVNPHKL

[19] = Luminescence-based cell-based high throughput dose response assay to identify activators of the DAF-12 from the parasite S. stercoralis (ssDAF-12).; assay type: functional
[20] = molecular target: T2, Oxysterols receptor LXR-beta; assay type: functional, cell-based
[21] = molecular target: NAD-dependent protein deacylase sirtuin-5, mitochondrial (Homo sapiens, UniProt Q9NXA8); assay: sirtuin-5 deacylation blockers, concentration series – biochemical, fluorescence imaging, cherry-pick, set 5, dose response (AID 720591);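 also: desuccinylation of succinyl peptide AMC substrate read as fluorescence after trypsin release; potency of inhibitors that lower fluorescence and may act on trypsin instead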
NAD-dependent protein deacylase sirtuin-5, mitochondrial, sequence (Q9NXA8 whole entry): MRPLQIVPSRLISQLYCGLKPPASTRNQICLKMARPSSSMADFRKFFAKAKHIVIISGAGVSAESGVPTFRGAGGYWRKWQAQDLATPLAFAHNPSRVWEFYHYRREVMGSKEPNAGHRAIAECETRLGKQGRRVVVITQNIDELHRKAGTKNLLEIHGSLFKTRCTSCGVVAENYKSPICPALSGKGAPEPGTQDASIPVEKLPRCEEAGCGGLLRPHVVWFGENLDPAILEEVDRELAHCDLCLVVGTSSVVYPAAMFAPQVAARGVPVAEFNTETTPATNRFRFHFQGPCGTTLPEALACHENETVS

[22] = OVCAR-3 cell viability loss – plate reader, dry powder samples, PAX8 inhibitor project, dose response (AID 743044); assay type: functional, cell-based
[23] = A2780 cell killing – plate reader, dry powder samples, cytotoxicity control, dose response (AID 743046); assay type: functional, cell-based
[24] = OVCAR8 cell viability loss – plate reader, dry powder samples, PAX8 project, dose response (AID 743197); assay type: functional, cell-based; conditions: OVCAR-8
[25] = IGROV1 cell killing – plate reader, dry powder samples, PAX8 inhibitor project, dose response (AID 743043); assay type: functional, cell-based; conditions: IGROV-1
Paired box protein Pax-8 = Paired box protein Pax-8 (Homo sapiens, UniProt Q06710); assay: PAX8 transcriptional activity inhibition in RMG-I – RMG-I cells, luciferase, cherry-pick, dose response (AID 687027); assay type: functional, cell-based;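 also: luciferase reporter driven by Pax8 target thyroperoxidase promoter measured by SteadyGlo luminescence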
Paired box protein Pax-8, sequence (Q06710 whole entry): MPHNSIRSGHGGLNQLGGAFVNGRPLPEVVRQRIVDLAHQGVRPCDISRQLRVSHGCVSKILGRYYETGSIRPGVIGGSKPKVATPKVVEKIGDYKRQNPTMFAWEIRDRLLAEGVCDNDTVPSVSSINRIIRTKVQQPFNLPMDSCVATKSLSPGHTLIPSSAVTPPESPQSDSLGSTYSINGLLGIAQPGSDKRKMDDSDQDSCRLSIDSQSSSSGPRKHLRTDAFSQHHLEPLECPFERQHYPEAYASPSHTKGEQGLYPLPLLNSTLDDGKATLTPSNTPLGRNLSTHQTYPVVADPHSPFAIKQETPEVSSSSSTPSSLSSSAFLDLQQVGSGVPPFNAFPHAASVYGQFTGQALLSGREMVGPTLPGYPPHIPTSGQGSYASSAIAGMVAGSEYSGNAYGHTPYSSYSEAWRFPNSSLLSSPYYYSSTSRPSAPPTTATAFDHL

[26] = HEK293 Cytotoxicity Assay Measured in Cell-Based System Using Plate Reader - 7071-01_Inhibitor_Dose_CherryPick_Activity_Set2.; assay type: functional
HEK293 [27] = assay: viability loss in HEK293T cells – cell-based, ATP luminescence, cherry-pick samples, cytotoxicity control, dose response (AID 687005); assay type: functional; conditions: Homo sapiens;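 also: cells exposed to compound for 48 hours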
[28] = blockers of FN fibrillogenesis by fibroblasts – AH1F cells, Alexa488-FN fluorescence, cherry-picks, dose response (AID 1035475); assay type: functional, cell-based
[29] = viability loss in HEK293 kidney cells – cell-based, cherry-picks, set 5, cytotoxicity control, dose response (AID 1053117); assay type: functional
BJ [30] = assay: cells; assay type: functional, cell-based; conditions: Homo sapiens
BJ [31] = assay: BJ-TERT fibroblast viability loss – cell-based, RAS-independent, luminescence, dose response (AID 1933); assay type: functional; conditions: Homo sapiens
[32] = toxicity toward HEK293 cells – cell-based, dry powder samples, cytotoxicity control, dose response (AID 720567); assay type: functional
BJ [33] = assay: BJ-TERT-LT-ST fibroblast viability loss – cell-based, RAS-independent, luminescence, dose response (AID 1935); assay type: functional; conditions: Homo sapiens;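 also: BJ fibroblasts immortalized with TERT plus LT and ST oncogenes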
[34] = DRD fibroblast viability loss – cell-based, non-viral oncogenic, luminescence, dose response (AID 1934); assay type: functional; conditions: Homo sapiens
[35] = viability loss in HEK293T cells – cell-based, CellTiter-Glo luminescence, dry powder, set 6, cytotoxicity control, dose response (AID 651949); assay type: functional; conditions: HEK293
[36] = molecular target: Sphingosine 1-phosphate receptor 1 (Homo sapiens, UniProt P21453); assay: Late-stage counterscreen for antagonists of kappa opioid receptor 1 (OPRK1): fluorescence-based cell-based dose response assay to identify antagonists of Sphingosine 1-Phosphate Receptor 1 (S1P1).; assay type: functional
Sphingosine 1-phosphate receptor 1, sequence (P21453 whole entry): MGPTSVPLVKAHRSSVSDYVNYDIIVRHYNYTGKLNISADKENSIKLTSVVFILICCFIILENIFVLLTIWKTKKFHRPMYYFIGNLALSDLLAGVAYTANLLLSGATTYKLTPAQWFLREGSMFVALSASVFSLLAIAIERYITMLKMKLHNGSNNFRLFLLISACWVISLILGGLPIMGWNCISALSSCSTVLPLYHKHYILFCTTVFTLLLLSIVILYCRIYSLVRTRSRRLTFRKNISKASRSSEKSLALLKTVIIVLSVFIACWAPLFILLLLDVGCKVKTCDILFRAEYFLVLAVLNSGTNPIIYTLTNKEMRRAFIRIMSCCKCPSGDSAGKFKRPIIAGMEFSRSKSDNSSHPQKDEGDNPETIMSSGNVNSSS

Mu-type opioid receptor = Mu-type opioid receptor (Homo sapiens, UniProt P35372); assay: Late-stage results from the probe development effort to identify antagonists of OPRK1: luminescence-based cell-based dose response OPRM1 counterscreen, Set 2.; assay type: functional
Mu-type opioid receptor, sequence (P35372 whole entry): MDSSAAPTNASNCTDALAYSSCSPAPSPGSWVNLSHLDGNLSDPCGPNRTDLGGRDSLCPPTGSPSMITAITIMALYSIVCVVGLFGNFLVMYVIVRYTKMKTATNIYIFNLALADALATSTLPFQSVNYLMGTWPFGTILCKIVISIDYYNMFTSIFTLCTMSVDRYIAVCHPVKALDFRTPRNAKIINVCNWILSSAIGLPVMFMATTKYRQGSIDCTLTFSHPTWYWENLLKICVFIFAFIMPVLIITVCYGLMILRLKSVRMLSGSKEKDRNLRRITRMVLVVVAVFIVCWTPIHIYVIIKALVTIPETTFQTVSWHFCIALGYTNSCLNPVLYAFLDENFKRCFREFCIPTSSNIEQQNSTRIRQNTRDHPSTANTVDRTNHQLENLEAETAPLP

[37] = molecular target: Kappa-type opioid receptor (Homo sapiens, UniProt P41145); assay: Late-stage fluorescence-based cell-based dose response assay for antagonists of kappa opioid receptor 1 (OPRK1).; assay type: functional
Kappa-type opioid receptor, sequence (P41145 whole entry): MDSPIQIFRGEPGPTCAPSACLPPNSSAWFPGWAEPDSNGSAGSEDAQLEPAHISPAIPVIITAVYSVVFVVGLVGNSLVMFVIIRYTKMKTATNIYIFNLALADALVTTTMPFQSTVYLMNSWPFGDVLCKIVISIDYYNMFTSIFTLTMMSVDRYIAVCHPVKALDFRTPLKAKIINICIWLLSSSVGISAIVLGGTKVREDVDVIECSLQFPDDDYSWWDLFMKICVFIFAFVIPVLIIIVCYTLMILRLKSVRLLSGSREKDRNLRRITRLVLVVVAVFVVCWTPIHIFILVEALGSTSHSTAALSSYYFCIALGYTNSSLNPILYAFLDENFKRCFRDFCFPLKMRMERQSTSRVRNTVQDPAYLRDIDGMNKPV

[38] = molecular target: Delta-type opioid receptor (Homo sapiens, UniProt P41143); assay: Late-stage results from the probe development effort to identify antagonists of OPRK1: fluorescence-based cell-based dose response OPRD1 counterscreen, Set 2.; assay type: functional
Delta-type opioid receptor, sequence (P41143 whole entry, the tested form may be a part): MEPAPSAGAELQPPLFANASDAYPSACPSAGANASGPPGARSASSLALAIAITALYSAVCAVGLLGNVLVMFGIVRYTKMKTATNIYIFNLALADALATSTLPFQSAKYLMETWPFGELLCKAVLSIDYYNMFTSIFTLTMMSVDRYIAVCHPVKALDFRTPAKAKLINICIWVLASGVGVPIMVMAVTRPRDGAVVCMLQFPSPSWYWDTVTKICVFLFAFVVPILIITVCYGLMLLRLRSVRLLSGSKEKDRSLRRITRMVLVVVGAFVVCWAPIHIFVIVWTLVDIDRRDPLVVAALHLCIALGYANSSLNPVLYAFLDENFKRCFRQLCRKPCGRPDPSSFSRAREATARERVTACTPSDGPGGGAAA

[39] = molecular target: Potassium channel subfamily K member 3 (Rattus norvegicus, UniProt O54912); assay: SAR analysis for the identification of selective inhibitors of the two-pore domain potassium channel TASK1(KCNK3):Automated Electrophysiology.; assay type: functional
Potassium channel subfamily K member 3 (Rattus norvegicus, UniProt O54912), sequence (O54912 whole entry, the tested form may be a part): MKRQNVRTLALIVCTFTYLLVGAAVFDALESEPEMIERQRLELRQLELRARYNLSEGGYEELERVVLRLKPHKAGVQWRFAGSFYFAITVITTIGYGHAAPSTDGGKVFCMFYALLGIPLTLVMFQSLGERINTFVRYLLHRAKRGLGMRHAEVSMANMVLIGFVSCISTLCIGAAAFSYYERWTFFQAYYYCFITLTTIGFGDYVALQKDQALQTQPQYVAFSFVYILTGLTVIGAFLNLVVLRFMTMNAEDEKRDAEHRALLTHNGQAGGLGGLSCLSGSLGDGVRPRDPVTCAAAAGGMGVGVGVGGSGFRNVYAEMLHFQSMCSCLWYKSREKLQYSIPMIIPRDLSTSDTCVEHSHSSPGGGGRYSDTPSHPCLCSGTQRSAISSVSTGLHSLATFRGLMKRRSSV

[40] = molecular target: Potassium channel subfamily K member 3 (Homo sapiens, UniProt O14649); assay: inhibition of human KCNK3 channel flux – CHO cells, FluxOR thallium flux, SAR follow-up (AID 652212); assay type: functional
Potassium channel subfamily K member 3 (Homo sapiens, UniProt O14649), sequence (O14649 whole entry): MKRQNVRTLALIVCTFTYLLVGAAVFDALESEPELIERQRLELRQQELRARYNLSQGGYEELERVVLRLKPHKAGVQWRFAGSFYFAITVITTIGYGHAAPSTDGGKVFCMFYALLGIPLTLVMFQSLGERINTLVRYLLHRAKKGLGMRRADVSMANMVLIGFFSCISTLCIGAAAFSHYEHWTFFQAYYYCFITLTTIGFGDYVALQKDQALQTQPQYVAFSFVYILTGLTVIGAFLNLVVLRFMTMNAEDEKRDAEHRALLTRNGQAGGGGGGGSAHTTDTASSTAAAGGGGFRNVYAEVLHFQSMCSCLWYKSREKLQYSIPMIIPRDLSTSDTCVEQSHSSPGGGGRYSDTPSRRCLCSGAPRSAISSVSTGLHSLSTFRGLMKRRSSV

[41] = molecular target: T3, Potassium channel subfamily K member 9 (Homo sapiens, UniProt Q9NPC2); assay: TASK3 channel blockers, electrophysiology – cell-based, automated electrophysiology, selectivity assay for TASK1 (KCNK3) inhibitor project, SAR follow-up (AID 652210); assay type: functional
T3 sequence (Q9NPC2 whole entry): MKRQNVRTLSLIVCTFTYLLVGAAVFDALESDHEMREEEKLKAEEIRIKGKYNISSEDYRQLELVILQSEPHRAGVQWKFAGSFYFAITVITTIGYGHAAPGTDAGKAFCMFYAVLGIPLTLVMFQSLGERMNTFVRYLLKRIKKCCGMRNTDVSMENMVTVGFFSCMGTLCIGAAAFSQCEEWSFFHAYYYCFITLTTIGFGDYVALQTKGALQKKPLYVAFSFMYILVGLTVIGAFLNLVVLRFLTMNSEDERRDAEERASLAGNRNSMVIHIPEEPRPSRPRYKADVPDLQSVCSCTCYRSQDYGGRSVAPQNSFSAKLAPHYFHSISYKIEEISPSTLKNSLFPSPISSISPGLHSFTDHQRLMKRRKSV

[42] = molecular target: T3, Potassium channel subfamily K member 9; assay: KCNK9 flux blockade, concentration-response – cell-based, FluxOR thallium flux, selectivity assay for TASK1 inhibitor project, SAR follow-up (AID 652211); assay type: functional;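 also: potency is for inhibitors of the channel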

SMILES: O=C(c1cc(COc2ccc3ncccc3c2)on1)N1CCCCCC1
- AC50 [1]: 43.6 µM (active)
- AC50 [2]: 23.4 µM (active)
- IC50 (HEK293 [3]): 13.2 µM (inactive)
- IC50 (HEK293 [4]): > 20 µM (inactive)
- IC50 [5]: 1.13 µM (active)
- IC50 [6]: 1.86 µM (active)
- EC50 (HEK293 [7]): 1.85 µM (active)
- IC50 (HEK293 [8]): 5.76 µM (active)
- AC50 [9]: 0.703 µM (active)
- AC50 (INS1): 5.88 µM (active)
- AC50 [10]: 3.57 µM (active)

SMILES: O=[N+]([O-])c1ccc(-c2nc(-c3cccs3)c(-c3cccs3)[nH]2)cc1
- EC50 [11]: 11.6 µM (active)
- EC50 (Streptococcus): 17.3 µM (active)
- EC50 [12]: 17.1 µM (active)
- CC50 [13]: 19.5 µM (active)
- EC50 [14]: 19 µM (active)
- IC50 [15]: > 69.5 µM (inactive)
- EC50 (Streptokinase A): 20.1 µM (active)

SMILES: CC1CCN(S(=O)(=O)c2ccc(C(=O)Nc3nnc(-c4ccco4)o3)cc2)CC1
- AC50 [16]: > 52 µM (inactive)

SMILES: COc1ccc(C(=O)/C=C2\Sc3ccccc3N2C)cc1
- EC50 [17]: > 67.6 µM (inactive)
- IC50 [18]: > 80 µM (inactive)
- IC50 [19]: > 67.6 µM (inactive)

SMILES: Cc1csc(NC(=O)c2oc3ccccc3c2C)n1
- EC50 [20]: > 67.6 µM (inactive)
- EC50 (cells): > 67.6 µM (inactive)

SMILES: COc1ccc(NC(=O)c2cccnc2N2CCCC2)cc1
- AC50 [21]: > 30 µM (inactive)

SMILES: O=C1CN(S(=O)(=O)Cc2ccccc2)C[C@@H]2[C@@H](c3ccc(C#CCC4CCCC4)cc3)[C@@H](CO)N12
- AC50 [22]: 4.22 µM (active)
- AC50 [23]: 11.3 µM (active)
- AC50 [24]: 28.1 µM (active)
- AC50 [25]: 18.8 µM (active)
- AC50 (Paired box protein Pax-8): 4.58 µM (active)

SMILES: COc1ccccc1CNC(=O)C[C@@H]1C[C@H]2c3cc(NC(=O)Nc4ccccc4F)ccc3O[C@H]2[C@@H](CO)O1
- AC50 [26]: 26.6 µM (active)
- AC50 (HEK293 [27]): 26.6 µM (active)

SMILES: N#Cc1ccc(-c2ccc3c(c2)[C@@H]2[C@@H](CCN2S(=O)(=O)c2cccc(F)c2)[C@H](CO)N3)cc1
- AC50 [28]: 1.18 µM (active)
- AC50 [29]: > 52 µM (inactive)

SMILES: C/C(=N\NC(=O)c1c([N+](=O)[O-])c(C)nn1C)c1ccc(NC(=O)C2CCCC2)cc1
- EC50 (BJ [30]): 0.476 µM (active)
- EC50 (BJ [31]): 1.02 µM (active)
- AC50 [32]: 12.8 µM (active)
- EC50 (BJ [33]): 0.918 µM (inconclusive)
- EC50 [34]: 0.605 µM (active)

SMILES: COc1ccc(CSc2nnc(-c3ccccc3)o2)cc1
- AC50 [35]: > 52 µM (inactive)

SMILES: COc1ccc(OS(=O)(=O)c2sc(Br)cc2Br)cc1
- IC50 [36]: > 50 µM (inactive)
- IC50 (Mu-type opioid receptor): > 50 µM (inactive)
- IC50 [37]: 16.9 µM (inactive)
- IC50 [38]: 35.7 µM (inactive)

SMILES: CCOc1ccccc1NC(=O)c1cccc(NC(=O)c2ccccc2C(F)(F)F)c1
- IC50 [39]: 0.006 µM (active)
- IC50 [40]: 0.03 µM (active)
- IC50 [41]: 0.52 µM (active)
- IC50 [42]: 0.32 µM (active)
